From patent publication US8617516B2, “Universal anchor peptide for nanoparticles” (Washington University, priority 2008, dated 2013)

How the values were obtained:
[1] = Fluorescence correlation spectroscopy (FCS) diffusion time; format: physicochemical; conditions: mean±STD (n=3)
Text: FCS is a quantitative technique, which detects fluorescence intensity fluctuations as fluorescent molecules diffuse through a small observation volume (<1 femtoliter). Statistical analysis of these fluorescence intensity fluctuations allows simultaneous determination of the number of fluorescent species in the system and their mobility.
In our case the observation volume is defined by the focal volume of a laser scanning microscope, while the statistical analysis of the intensity trace is calculated as follows: […]
The correlation curve obtained from the experiment is fitted with a mathematical function which describes the fluorescence intensity fluctuations in the observation volume according to Brownian diffusion and it also accounts for the photophysical characteristics of the dye:
where N is the average number of fluorescent particles in the observation volume, T is the fraction of fluorophores in the triplet state, τT is the lifetime of the triplet state of the fluorophore, τD is the characteristic diffusion time of the fluorophore, ω0 the waist radius of the laser focus. […]
The waist of the focus ω0 was determined by fitting the autocorrelation curve obtained in the same experimental conditions using free Alexa Fluor 488 [22]. In the case of labeled peptide binding to the nanoparticles the correlation curves were analyzed using the two component model as was described previously.

[2] = Surface plasmon resonance of NBD-Linker incorporation into PFC nanoparticles; format: binding; conditions: NBD-Linker on immobilized PFC nanoparticles, two-state model; read-out: dissociation constant of the entire process
Description: The kinetics of NBD-Linker incorporation into lipid monolayers of PFC nanoparticles was studied by surface plasmon resonance (SPR). SPR detects change in the […] of a surface (Biacore-X 100 and carboxymethylated dextran chip L1 from Biacore Inc, Piscataway, N.J.). A uniform lipid monolayer on a L1 chip was created by injecting PFC nanoparticles (3 μl/min) for 30 minutes. Loosely deposited nanoparticles were removed by performing extra washing steps after immobilization to ensure a stable baseline. Complete coverage was confirmed by injecting the bovine serum albumin (1 mg/ml in PBS) at 15 μl/min for 2 minutes. Different peptides in selected concentrations were injected at a flow rate of 30 μl/min for 1 minute. At the end of each experiment the chip was regenerated by two consecutive injections of 3-[(3-cholamidopropyl)dimethylammonio]-1-propanesulfonate, CHAPS (50 μl, 100 μl/min). The data were analyzed with BiaEvaluation software (Biacore Inc, Piscataway, N.J.). A two-state model, [17].
To investigate the release rate of the NBD-Linker from the PFC nanoparticles, surface plasma resonance experiments were performed with a Biacore X 100, which allows quantitative analysis of interaction between peptide and lipid membrane. […] We consistently recorded two populations of peptides in the peptide-lipid interactions. […]

[3] = Dynamic light scattering size and zeta potential of peptide-loaded PFOB/PFC nanoparticles; format: physicochemical; conditions: PFC nanoparticles without and with various amount of peptide loading
Description: The size distributions of the nanoparticles with or without the linker peptide were analyzed by dynamic light scattering (Brookhaven Instruments Corp., Holtsville, N.Y.). Zeta potential (ζ) values were determined with a Brookhaven Instruments PALS Zeta Potential Analyzer (Brookhaven Instruments Corp., Holtsville, N.Y.). Data were acquired in the phase-analysis light scattering (PALS) mode following solution equilibration at 25° C. […] This change further confirms the insertion of the linker peptide 1 into the PFOB nanoparticles. Furthermore, the structural integrity of linker peptide 1 inserted PFOB nanoparticles was confirmed by transmission electron microscopy.
The size distributions of the nanoparticles with or without cargo incorporated were analyzed by dynamic light scattering (Brookhaven Instruments Corp., Holtsville, N.Y.). The size distribution was plotted by particle number. Zeta potential (ζ) values were determined with a Brookhaven Instruments PALS Zeta Potential Analyzer (Brookhaven Instruments Corp., Holtsville, N.Y.). Data were acquired in the phase-analysis light scattering (PALS) mode following solution equilibration at 25° C.

| Compound | diffusion time [1] [μsec] | Kd [2] [µM] | mean diameters [3] |
| --- | --- | --- | --- |
| N=c1ccc2c(-c3ccc(C(=O)O)cc3C(=O)O)c3ccc(N)c(S(=O)(=O)O)c3oc-2c1S(=O)(=O)O [Alexa Fluor 488] | 35.8±1.4 |  |  |
| NBD peptide (TALDWSWLQTE) fused onto the N-terminal of linker peptide (VLTTGLPALISWIKRKRQQ) with two glycines as a spacer [NBD-Linker] |  | 0.14 | equivalent |
